Test results published in patent US3966978A (American Cyanamid Company, priority 1975, dated 1976).
Where “and” joins values, the source holds several entries; their conditions need not be identical. Equal entries are not always repeated.

Assays:
platelet rich plasma = test: Collagen-induced aggregation of platelet rich plasma from orally treated male rats; format: in vivo; conditions: Rattus norvegicus, po, 2 h, 100 mg./kg. orally, bled after one to two hours, collagen 500 mcg./ml., read-out: Percent Inhibition of aggregation
Protocol: In a second test the in vivo activity of the compound was established. In this test the compound was administered orally to male rats at a concentration of 100 mg./kg. After one to two hours, the rats were bled and platelet rich plasma obtained. Collagen, at a concentration of 500 mcg./ml. was added to induce platelet aggregation and comparisons were made between control and treated samples. The percent inhibition of aggregation produced by the compound of this invention appears in Table II.

[1] = test system: respiratory depression associated with platelet aggregation and thrombosis induced by arachidonic acid; test: Respiratory depression induced by arachidonic acid in mice; format: in vivo
Protocol: Two hours later a challenge dose of arachidonic acid was given to the mice intravenously at a concentration of 50 mg./kg. The period of respiratory distress for each animal was recorded in seconds by observation. The results appear in Table III in comparison with controls who received only starch vehicle.

[2] = test system: human platelet rich plasma; test: Collagen-induced platelet aggregation in vitro in human platelet rich plasma (method of Born and O'Brien), change in optical density; format: cell-based; conditions: collagen 500 mcg./ml., read-out: Percent Inhibition (of maximum aggregation response to collagen in a control sample)
Protocol: Various concentrations of the compound were added in vitro to human platelet rich plasma. Collagen (final concentration 500 mcg./ml.) was added to induce platelet aggregation. Inhibition of platelet aggregation was determined by measuring the change in the optical density of the platelet rich plasma.

pain = conditions: warm-blooded animals; U.S. Pat. No. 3,784,704; cited from earlier work

Structure (SMILES): O=C(O)Cc1ccc(-c2ccccc2)cc1 [4-Biphenylacetic acid]
- inhibition at 100 mg/kg (platelet rich plasma): 12%
- period of respiratory distress, Average, Treated ([1]; 100 mg./kg. orally, arachidonic acid 50 mg./kg. i.v. two hours later, average of 21 treated animals (controls 7.58 minutes)): 1.93 min
- period of respiratory distress, Time in Seconds, Treated (individual animals) ([1]; 100 mg./kg. orally, arachidonic acid 50 mg./kg. i.v. two hours later, individual animals 1-21, one line each in order): 420 s and 200 s and 30 s and 150 s and 170 s and 80 s and 195 s and 125 s and 35 s and 120 s and 25 s and 20 s and 60 s and 50 s and 90 s and 75 s and 70 s and 189 s and 100 s
- inhibition of respiratory depression induced by arachidonic acid (in words) ([1]; in vivo): inhibits the respiratory depression
- inhibition at 25 µg/mL ([2]; concentration 25 mcg./ml.): 38.6%
- inhibition at 250 µg/mL ([2]; concentration 250 mcg./ml.): 40.7%
- amelioration of pain (in words) (pain): long lasting amelioration of pain
